What was measured:
[1] = test system: human Cav2.3c channel and GABABR; type: cell-based
[2] = molecular target: human Cav2.1 (α1A-2) channel and GABABR (Homo sapiens, UniProt O75899+Q9UBS5); type: cell-based; settings: 200 nM
GABABR = settings: cited from earlier work
[3] = test system: rat models of neuropathic pain; settings: in vivo; cited from earlier work
[4] = molecular target: human Cav2.3c (α1E-c) channel and GABABR (Homo sapiens, UniProt O75899+Q9UBS5); type: cell-based; settings: 200 nM

Vc1.1
pathway of inhibition (VD or VI) [1]: solely mediated by a VI pathway | IBa inhibition [2]: 0 (9) % | competition with baclofen for binding to receptors (GABABR): does not compete with baclofen for binding to receptors | analgesic effect [3]: can be used as an analgesic in rat models of neuropathic pain | IBa inhibition [4]: 25.5 ± 4.2 (9) %

— paper PMC3971658 (The Journal of General Physiology, 2014)
